This is an account of results in patent US4022606A, “Antimicrobial use of ω-aminocarboxylic acid amides” (Henkel & Cie G.m.b.H., priority 1973, dated 1977).

Common to all, as to format: cell-based
For test [1], the system named is Mixture of contaminated water from 3 scrubbers of air conditioning installations. As to the kind of experiment: Minimum inhibitory concentration, dilution test, germ 7. The procedure: (§1) In order to measure the antimicrobial efficacy of the above-named ω-aminocarboxylic acid amides, their inhibitory effect upon the subsequently listed bacteria and fungi, as well as upon the germs in contaminated process water was determined.
7) Mixture of contaminated water
from 3 scrubbers of air con-
ditioning installations
(§2) The minimum inhibitory concentrations of the products to be tested were determined by means of the dilution test according to the standards for the examination of chemical disinfectants which had been published in 1959 by the Deutsche Gesellschaft fur Hygiene und Mikrobiologie (German Association for Hygiene and Microbiology). The tests were carried out in test tubes which were filled with Standard-I-Broth (Merck) or with beer wort (8° Be) and diluted 1:5 with tap water. After the addition of the active substances, the volume of the nutrient solution in the test tubes was adjusted to 10 ml. Next, the test tubes were inoculated with 0.1 ml test organism suspension. In the case of bacteria, the inoculated test tubes were incubated in the incubator for 3 days at 37° C. and in the case of fungi, they incubated for 6 days at 30° C. Subsequently, the concentration of the compound added to the nutrient medium which was just able to inhibit completely the growth of the germs was determined. The value thus determined was designated as the minimum inhibitory concentration (m.i.c.). The following concentration intervals were used for the tests: 1,000 ppm, 750 ppm, 500 ppm, 250 ppm, 100 ppm, 50 ppm, 25 ppm, 10 ppm, 7.5 ppm, 5 ppm, 2.5 ppm, and 1 ppm.
(§3) The inhibitory concentrations of the individual products for the above-quoted germs which were determined in this dilution test are listed in the following Table III.

Test [2] relates to Aspergillus niger. Briefly: Minimum inhibitory concentration, dilution test, germ 5. To be noted: 144 h, 9 × 10^5 organisms/ml, 6 days at 30° C. The procedure: as §1
5) Aspergillus niger 9 × 10^5 organisms/ml
as §2, §3

The test system of test [3] is Candida albicans. Briefly: Minimum inhibitory concentration, dilution test, germ 4. To be noted: 144 h, 2 × 10^6 organisms/ml, 6 days at 30° C. The procedure: as §1
4) Candida albicans 2 × 10^6 organisms/ml
as §2, §3

The subject of test [4] is Escherichia coli. Briefly: Minimum inhibitory concentration, dilution test, germ 2. To be noted: 72 h, 4 × 10^7 organisms/ml, 3 days at 37° C. The protocol:
as §1
(§4) 2) Escherichia coli 4 × 10^7 organisms/ml
as §2, §3

Test [5] deals with Pseudomonas aeruginosa. As to the kind of experiment: Minimum inhibitory concentration, dilution test, germ 3. Particulars: 72 h, 4 × 10^7 organism/ml, 3 days at 37° C. The procedure:
as §1
(§5) 3) Pseudomonas aeruginosa
as §2, §3

Test [6] deals with Escherichia coli. Briefly: Microbicidal effect, suspension test, germ 2. To be noted: 18° C. to 21° C. The procedure: (§6) The microbicidal effect of some products named above was determined by means of the suspension test. The methodology of this testing procedure has been taken from the standards for the testing of chemical disinfectants, published in 1959 by the German Association for Hygiene and Microbiology. In conformity with these standards, 0.1 ml of a test organism suspension of the following enumerated bacteria or fungi was pipetted into test tubes at 18° C. to 21° C.
as §4
(§7) The products of the invention to be tested were dissolved in tap water of 16° dH (German degrees of hardness). Then, 10 ml of the respective dilution quantity of the product to be tested were added to each test tube. The concentrations of the products according to the invention were 100 ppm, 250 ppm and 500 ppm in each case. After a duration of action amounting to 1, 2.5, 5, 10, 20, 30 and 60 minutes, a loop of material was taken from each test tube and inoculated in 10 ml of nutrient solution which contained 3% Tween and 0.3% Lecithin as de-inhibitors. The nutrient solutions inoculated with bacteria were incubated at 37° C. whereas the nutrient solutions inoculated with fungi were incubated at 30° C. After 6 days, the growth of the cultures was macroscopically evaluated.

Test [7] has as its system Staphylococcus aureus. Briefly: Minimum inhibitory concentration, dilution test, germ 1. Particulars: 72 h, 5 × 10^7 organisms/ml, 3 days at 37° C. The procedure: as §1
(§8) 1) Staphylococcus aureus
as §2, §3

Test [8] deals with Staphylococcus aureus. As to the kind of experiment: Microbicidal effect, suspension test, germ 1. Particulars: 18° C. to 21° C. The protocol:
as §6, §8, §7

The subject of test [9] is Mixture of contaminated water from 3 cooling towers. Briefly: Minimum inhibitory concentration, dilution test, germ 6. The procedure: as §1
6) Mixture of contaminated water
as §2, §3

Test [10] deals with Pseudomonas aeruginosa. Briefly: Microbicidal effect, suspension test, germ 3. Particulars: 18° C. to 21° C. The protocol:
as §6, §5, §7

Test [11] deals with mixed suspension of Scenedesmus obliquus and Chlorella vulgaris. Briefly: Efficacy in inhibiting growth of algae. Particulars: 168 h; after 7 days, pH 7.2; read-out: Minimum Inhibitory Concentration, growth of algae. The protocol:
The efficacy in inhibiting growth of algae was determined in cylindrical vessels under intensive aeration. Into the vessels, there were introduced 100 ml of a nutrient solution to which increasing quantities of active substances had been added as well as 4 ml of a mixed suspension of Scenedesmus obliquus and Chlorella vulgaris.
The nutrition solution has the following composition:
These compounds were dissolved in 1000 ml of distilled water. The pH value of the nutrient solution was 7.2. The tests were carried out with the following concentration intervals of the active substance: 10 ppm, 5 ppm, 2.5 ppm, 2 ppm, 1.5 ppm, 1 ppm, 0.75 ppm, 0.5 ppm, and 0.25 ppm.

Test [12] deals with Desulfovibrio desulfuricans. Briefly: Inhibition of the growth of sulfate-reducing bacteria. Particulars: 672 h, 6× 10^5 organisms/ml, 37° C., 4 weeks, pH 7.4, read-out: Inhibitory Concentration, growth of Desulfovibrio Desulfuricans. The protocol: The minimum inhibitory concentrations were determined in 50 ml screw-top bottles. The bottles were charged with an optimum nutrient solution for the growth of sulfate-reducing bacteria of the following composition:
which compounds were dissolved in 1000 ml of distilled water. The pH value of the nutrient solution was 7.4.
After various concentrations of the products to be tested had been added, 1 ml of a pure culture of Desulfovibrio desulfuricans 6× 10^5 organisms/ml was used for inoculation, followed by incubation at 37° C. for 4 weeks. The following concentration intervals were used for the tests: 100 ppm, 50 ppm, 40 ppm, 30 ppm, 20 ppm, 10 ppm, 5 ppm, 2.5 ppm, and 1 ppm.
In this test, the minimum inhibitory concentrations listed in the following Table VI were determined for the individual products.

In brackets after ≈: the same amount, converted by molar mass.

In the case of `CCCCCCCCCCCCNC(=O)CN.Cl` [Product A, N-glycyl-dodecylamine hydrochloride], the MIC in [1] turned out to be 25 µg/mL; in [2] it was 100 µg/mL; in [3] it was 50 µg/mL; in test [4] it was 100 µg/mL; in [5] it was 500 µg/mL; in test [7] it was 50 µg/mL. For the same compound, in test [9], the MIC came out at 25 µg/mL. Further, the “Sterilization Time” value stood at 20 min in [6] (100 ppm in tap water); 10 min in [6] (250 ppm in tap water); 10 min in [6] (500 ppm in tap water); 10 min in test [8] (100 ppm in tap water); 5 min in [8] (250 ppm in tap water); 5 min in test [8] (500 ppm in tap water). Further, the “Sterilization Time” value in test [10] (100 ppm in tap water) stood at 60 min; in [10] (250 ppm in tap water) it was 20 min; in test [10] (500 ppm in tap water), 10 min.

For `CCCCCCCCCCNC(=O)CCN` [Product B, 3-aminopropionic acid-decylamide], the MIC in test [1] is 25 µg/mL (≈ 109 µM); in [11], 1 µg/mL (≈ 4.38 µM); in [2], 100 µg/mL (≈ 438 µM); in test [3], 100 µg/mL (≈ 438 µM); in [4], 50 µg/mL (≈ 219 µM); in test [5] it was 100 µg/mL (≈ 438 µM). The MIC in test [7] stood at 50 µg/mL (≈ 219 µM); in test [12] it was 5 µg/mL (≈ 21.9 µM); in test [9] it was 25 µg/mL (≈ 109 µM). The “Sterilization Time” value in [6] (100 ppm in tap water) turned out to be 10 min; in test [6] (250 ppm in tap water) it was 10 min; in [6] (500 ppm in tap water) it was 10 min; in test [8] (100 ppm in tap water), 5 min; in test [8] (250 ppm in tap water) it was 5 min; in test [8] (500 ppm in tap water) it was 5 min. In addition, the “Sterilization Time” value in test [10] (100 ppm in tap water) was 30 min; in test [10] (250 ppm in tap water), 10 min; in test [10] (500 ppm in tap water), 10 min.

For `CCCCCCCCCCCCNC(=O)CCCCCN(C)C` [Product C, 6-(N,N-dimethylamino)capronic acid-dodecylamide], the MIC was 10 µg/mL (≈ 30.6 µM) in test [1]; 0.75 µg/mL (≈ 2.3 µM) in test [11]; 250 µg/mL (≈ 766 µM) in test [2]; 100 µg/mL (≈ 306 µM) in test [3]; 25 µg/mL (≈ 76.6 µM) in test [4]; 1000 µg/mL (≈ 3060 µM) in test [5]. Also, the MIC turned out to be 25 µg/mL (≈ 76.6 µM) in test [7], 2.5 µg/mL (≈ 7.66 µM) in test [12] and 10 µg/mL (≈ 30.6 µM) in test [9]. The “Sterilization Time” value came to 10 min in test [6] (100 ppm in tap water); 5 min in [6] (250 ppm in tap water); 5 min in test [6] (500 ppm in tap water); 5 min in test [8] (100 ppm in tap water); 2.5 min in test [8] (250 ppm in tap water); 2.5 min in test [8] (500 ppm in tap water). In addition, the figures for the “Sterilization Time” value in test [10] (100 ppm in tap water), in test [10] (250 ppm in tap water) and in test [10] (500 ppm in tap water) were 30 min, 10 min and 5 min, respectively.

With `CCCCCCCCCCCCNC(=O)CCCCCN` [Product D, 6-aminocapronic acid-dodecylamide], the MIC in test [1] worked out at 5 µg/mL (≈ 16.7 µM); in test [2] it was 50 µg/mL (≈ 167 µM); in [3], 50 µg/mL (≈ 167 µM); in test [4], 5 µg/mL (≈ 16.7 µM); in [5], 100 µg/mL (≈ 335 µM); in [7], 5 µg/mL (≈ 16.7 µM). The MIC in [9] stood at 5 µg/mL (≈ 16.7 µM).

In the case of `CCCCCCCCCCCCNC(=O)CCCCCNC(=O)CCCCCN` [Product E], the MIC in [1] worked out at 25 µg/mL (≈ 60.7 µM); in [2], 250 µg/mL (≈ 607 µM); in test [3], 250 µg/mL (≈ 607 µM); in test [4], 50 µg/mL (≈ 121 µM); in test [5], 250 µg/mL (≈ 607 µM); in test [7], 50 µg/mL (≈ 121 µM). In addition, in test [9], the MIC is 25 µg/mL (≈ 60.7 µM).

With `CCCCCCCCCCCCCCNC(=O)CCCCCN` [Product F], the MIC was determined as 7.5 µg/mL (≈ 23 µM) in test [1]; 100 µg/mL (≈ 306 µM) in test [2]; 50 µg/mL (≈ 153 µM) in test [3]; 5 µg/mL (≈ 15.3 µM) in [4]; 250 µg/mL (≈ 766 µM) in test [5]; 5 µg/mL (≈ 15.3 µM) in test [7]. For the same compound, in test [9], the MIC is 7.5 µg/mL (≈ 23 µM).
